Values of other authors as cited in patent US9943402B2, “Micropatterned intraocular implant” (InSight Innovations, LLC, priority 2008, dated 2018).

System: posterior capsule opacification (PCO)
Settings: topical treatment after phacoemulsification

SMILES	inhibition of PCO (in words)
O=C(O)Cc1ccccc1Nc1c(Cl)cccc1Cl [diclofenac]	do not appear to inhibit PCO
COc1ccc2c(c1)c(CC(=O)O)c(C)n2C(=O)c1ccc(Cl)cc1 [indomethacin]	do not appear to inhibit PCO
